The values below come from PubChem BioAssay AID859 (Vanderbilt High Throughput Screening Facility, 2007).

Molecules are shown by their SMILES.

A word on the IC50: it is the concentration that inhibits the measured activity by half.

For the experiment, the target named is Muscarinic acetylcholine receptor M1 (Rattus norvegicus) (UniProt P08482). The experiment in a line: rat M1 muscarinic receptor antagonist potency, dose response, cell-based, calcium fluorescence (AID 859). Particulars: M1-expressing cells, antagonist mode vs EC80.
Chain of Muscarinic acetylcholine receptor M1 (Rattus norvegicus) (P08482 whole entry, looked up): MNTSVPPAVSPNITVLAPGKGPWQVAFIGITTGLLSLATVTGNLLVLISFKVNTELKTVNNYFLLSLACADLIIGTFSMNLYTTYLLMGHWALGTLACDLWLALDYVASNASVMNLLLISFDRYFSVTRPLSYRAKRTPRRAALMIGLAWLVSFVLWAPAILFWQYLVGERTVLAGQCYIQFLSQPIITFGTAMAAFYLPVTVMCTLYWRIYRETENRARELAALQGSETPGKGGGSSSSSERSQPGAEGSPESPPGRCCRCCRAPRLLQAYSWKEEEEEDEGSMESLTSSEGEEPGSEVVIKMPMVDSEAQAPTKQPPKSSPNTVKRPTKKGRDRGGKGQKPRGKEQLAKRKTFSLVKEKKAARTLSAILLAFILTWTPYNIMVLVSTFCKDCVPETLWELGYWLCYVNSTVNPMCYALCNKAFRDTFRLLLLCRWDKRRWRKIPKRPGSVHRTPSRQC
Consider `Cc1cccc(Cn2c(Sc3nc(C)cs3)nc3c2c(=O)[nH]c(=O)n3C)c1`, for which the IC50 is 0.0202 µM. The result for `CC1CCN(Cc2ccc(NC(=O)CC3Oc4ccccc4NC3=O)cc2)CC1` (stereo unspecified) reads 0.234 µM. The result for `Clc1ccc(OCc2nnc(SCCN3CCCCC3)n2Cc2ccco2)cc1` reads 1.4 µM. The result for `CC[N+]1(C)CCCC(OC(=O)C(O)(c2ccccc2)c2ccccc2)C1` (stereo unspecified) reads 0.0159 µM. On to `CCN(CCCCOC(=O)c1ccc(OC)c(OC)c1)C(C)Cc1ccc(OC)cc1` (stereo unspecified), for which the IC50 is 1.16 µM. As to `O=C1CC(N2CCN(C/C=C/c3ccccc3)CC2)C(=O)N1Cc1cccs1` (stereo unspecified), the IC50 was 0.846 µM.

Turning to `CCN(CC)CCOC(=O)C(c1ccccc1)c1ccccc1`, the IC50 was 0.327 µM.

`CN(C)CCC=C1c2ccccc2CCc2ccccc21`: the IC50 is 0.637 µM.

On to `CCOC(=O)Nc1ccc2c(c1)N(C(=O)N1CCN(C)CC1)c1ccccc1S2`, for which the half-maximal inhibitory concentration (IC50) was 1.41 µM. `CN1CCN(C2=Nc3ccccc3Oc3ccc(Cl)cc32)CC1`: the IC50 was 1.21 µM. In the case of `O=C(CN1CCCC(O)C1)N1c2ccccc2Sc2ccc(C(F)(F)F)cc21` (stereo unspecified), the IC50 was 0.766 µM.

`OC(CCN1CCCC1)(c1ccccc1)C1CCCCC1` (stereo unspecified): the IC50 was 0.116 µM. The result for `O=C(OCCN1CCCC1)C1(c2ccccc2)CCCC1` reads 0.182 µM; that for `Cc1ccc2nc(NC3=NCN(CCN4CCOCC4)CN3)nc(C)c2c1`, 0.00277 µM. The figure for `O=C1CC(N2CCN(c3ccc(S(=O)(=O)N4CCOCC4)cc3)CC2)C(=O)N1Cc1ccccc1` (stereo unspecified) is 0.777 µM.

In the case of `CCN1CCN(Cc2cc(=O)oc3cc(C)cc(C)c23)CC1`, the IC50 is 0.974 µM. The figure for `O=C(CN1CCN(CCOCCO)CC1)N1c2ccccc2Sc2ccc(Cl)cc21` is 1.03 µM; for `CCOc1nc(C#N)nc(N2CCCCC2)n1` it is 1.35 µM. On to `CN1CCCN=C1COC(=O)C(O)(c1ccccc1)C1CCCCC1` (stereo unspecified), for which the IC50 was 0.0126 µM.

On to `CN1CCN(CCC(C#N)(c2ccccc2)c2ccccc2)CC1`, for which the IC50 is 0.395 µM. Regarding `C=CCSc1nnc2c(n1)OC(c1cccnc1)N(C(C)=O)c1ccccc1-2` (stereo unspecified), the IC50 is 0.19 µM. `Cc1c(C(=O)OC(C)CCN(C)C)oc2ccccc12` (stereo unspecified): the IC50 was 0.681 µM. On to `CCN1C(=O)/C(=C\N2CCCCCC2)SC1=S`, for which the IC50 is 0.438 µM. The figure for `CNCCCC1c2ccccc2C=Cc2ccccc21` is 1.26 µM. Regarding `CCCC(CCC)C(=O)OC1C[C@H]2CC[C@@H](C1)[N+]2(C)C` (stereo partly specified), the IC50 was 0.302 µM. As for `CN(C)CCCOC(=O)C1c2ccccc2Oc2ccccc21`, the IC50 was 0.0637 µM. On to `CN1CCC(OC(=O)C2c3ccccc3Oc3ccccc32)CC1`, for which the IC50 is 0.00927 µM. The figure for `Cc1ccc2c(c1)NC(=O)C(CC(=O)Nc1ccc(CN3CCC(C)CC3)cc1)O2` (stereo unspecified) is 0.29 µM; for `Cn1cc(CN2CCN(c3ccccc3)CC2)c2ccccc21` it is 0.226 µM; for `Cc1onc(-c2ccccc2Cl)c1C(=O)Nc1ccc(-c2nnc3n2CCCCC3)cc1` it is 0.491 µM.

As to `OC(CCN1CCCCC1)(c1ccccc1)c1ccccc1`, the IC50 is 0.058 µM. `Cc1nc2c(o1)CCc1ccccc1C2N1CCN(C)CC1` (stereo unspecified): the IC50 was 0.0464 µM.

`c1ccc(-c2cc(-c3nnc4sc(-c5ccccn5)nn34)[nH]n2)cc1`: the IC50 was 0.414 µM. On to `COC(=O)Nc1ccc2c(c1)N(C(=O)CCN1CCOCC1)c1ccccc1S2`, for which the IC50 is 1.06 µM. As to `CCC(C)N(CCNC(=O)CC1Oc2ccc(C)cc2NC1=O)C1CCCCC1` (stereo unspecified), the IC50 is 1 µM. The result for `CN(C)CCOC(=O)C(c1ccccc1)C1(O)CCCC1` (stereo unspecified) reads 0.0257 µM.
